Read-outs that look alike come from different tables or passages of the source.

The test system of one series is connexin gene. Conditions: mammalian cells in culture; cited from earlier work.
For series [1] the following is noted: cited from earlier work.
The test system of series [2] is patients with idiopathic dilated cardiomyopathy. Conditions: Co-enzyme Q10 33.3 mg thrice/day, 126 patients, 6 y; cited from earlier work.
The test system of series [3] is intracellular levels of glutathione. To be noted: cited from earlier work.
For series [4], the system named is patients undergoing angioplasty. Conditions: 317 patients, 4 weeks before and 6 months after angioplasty, vs placebo, cited from earlier work.
Series [5] has as its system healthy male subjects receiving methionine. Conditions: Vit. C 2 g, methionine 100 mg/kg, 6 hours; cited from earlier work.
In series [6] the test system is diabetes type 2 patients with or without macrovascular complications. To be noted: 1200 IU/day, 75 patients, 5 months; cited from earlier work.
In series [7] the test system is patients with chronic renal failure. To be noted: 800 IU, 33 patients, 12 weeks, cited from earlier work.
In series [8] the test system is patients with angiographically proven coronary atherosclerosis. To be noted: cited from earlier work.
Series [9] concerns smokers with hypercholesterolemia. Conditions: 544 IU, 42 patients, 4 months; cited from earlier work.
For series [10] the following is noted: oral supplementation, human subjects; cited from earlier work.
For a further series, the system named is adenylate cyclase. To be noted: cited from earlier work.
Series [11] is described as follows: Oral ingestion of α-TS, plasma levels. The series is classed as in vivo. To be noted: 800 IU/day, humans. An excerpt:
Also, the oxidative DNA damage produced by oxidized vitamin C could be ameliorated by vitamin E. The form and type of vitamin E used are also important in any clinical trial. […] Selenium is a co-factor of glutathione perodidase, and Se-glutathione peroxidase also acts as an antioxidant. Therefore, selenium supplementation together with other antioxidants is also essential.

The next series has as its system heavy smokers. To be noted: 800 IU daily, 10 heavy smokers, 3 weeks, cited from earlier work.
Series [12] relates to patients with high risk for cardiac events. Conditions: Vitamin E 400 IU, 9,541 patients, follow-up 4.5 y, vs control, cited from earlier work.
The subject of series [13] is 39,910 male health professionals. Conditions: at least 100 IU per day for at least 2 years vs no vitamin E; cited from earlier work.
The test system of a further series is rabbits. To be noted: cited from earlier work.
In series [14] the test system is 11,000 people of age 67 or over. To be noted: follow up 6 years; cited from earlier work.
Series [15] relates to men (high risk patients with prior cardiac events). Conditions: 50 mg/day, 1862 men, 6 y, vs placebo, cited from earlier work.
For the next series, the system named is chickens. Conditions: cited from earlier work.
Series [16] concerns patients having coronary angioplasty. Conditions: cited from earlier work.
The subject of the next series is male monkeys. Conditions: vs unsupplemented atherosclerotic-promoting diet; cited from earlier work.
Setting [17] is: 400 or 800 IU per day, median follow-up 510 days.

As for `CC1=C(/C=C/C(C)=C/C=C/C(C)=C/C=C/C=C(C)/C=C/C=C(C)/C=C/C2=C(C)CCCC2(C)C)C(C)(C)CCC1` [BC, β-carotene], in the series with connexin gene, the “expression of the connexin gene” value is “enhances”. Besides, the “doses that can cause yellowing of skin and pigment deposits in the eye” value in [1] (reversible upon discontinuation) is ≥ 100 mg/day.

In the case of `COC1=C(OC)C(=O)C(C/C=C(\C)CC/C=C(\C)CC/C=C(\C)CC/C=C(\C)CC/C=C(\C)CC/C=C(\C)CC/C=C(\C)CC/C=C(\C)CC/C=C(\C)CCC=C(C)C)=C(C)C1=O` [Coenzyme Q10], in series [2], the Cardiac muscle function entry is reported as “useful in improving”. The “doses with no known toxicity in humans” value in series [1] (in vivo) is “up to 300 mg/d”.

As to `CC(=O)N[C@@H](CS)C(=O)O` [N-acetylcysteine], the “intracellular levels of glutathione” value in series [3] is on record as “increase”. In addition, the “doses that can cause trace metal deficiencies” value in series [1] (in vivo) is on record as ≥ 1000 mg/day.

For `CC(C)(Sc1cc(C(C)(C)C)c(O)c(C(C)(C)C)c1)Sc1cc(C(C)(C)C)c(O)c(C(C)(C)C)c1` [Probucol], the Restenosis result is “probucol reduced” in series [4] and “effective in reducing” in series [4] (listed as probucol).

Turning to `O=C1O[C@H]([C@@H](O)CO)C(O)=C1O` [Vit. C, ascorbic acid], in [5], the “Plasma homocysteine, arterial stiffness” value was “reduced”.

As for `Cc1c(C)c2c(c(C)c1O)CC[C@@](C)(CCC[C@H](C)CCC[C@H](C)CCCC(C)C)O2` [Vitamin E (d-αT), d-alpha tocopherol], in [6], the “C-reactive protein (and monocyte interleukin-6)” value is “lowered”. In addition, the LDL oxidation result in series [7] (listed as Vit. E (d-αT)) is “reduced”; in series [7] (listed as α-tocopherol), “decreased”. Also, the “Death, non-fatal MI” value in [8] (400 or 800 IU, 2,002 patients, follow-up 510 d) is “reduced”.

`CC(=O)Oc1c(C)c(C)c2c(c1C)CCC(C)(CCC[C@H](C)CCC[C@H](C)CCCC(C)C)O2` (stereo partly drawn) [Vitamin E(α-TA), alpha tocopheryl acetate]: in [9], the “FMD (endothelial-dependent flow-mediated dilation)” value is “improved”.

Turning to `N[C@@H](CCC(=O)N[C@@H](CS)C(=O)NCC(=O)O)C(=O)O` [glutathione], the “plasma levels of glutathione” value in [10] is “failed to significantly increase”.

As to `Cc1c(C)c2c(c(C)c1OC(=O)CCC(=O)O)CC[C@@](C)(CCC[C@H](C)CCC[C@H](C)CCCC(C)C)O2` [α-TS, α-tocopherol-succinate], in the series on adenylate cyclase, the “action of PGE2 on adenylate cyclase” value is recorded as “reduce”. For the same compound, in series [11], the “plasma levels of α-tocopherol and α-TS” value was “increased”.

With `O=C(O)CCCCC1CCSS1` (stereo not drawn) [α-lipoic acid], in [3], the “intracellular levels of glutathione” value is “increase”.

Take Vitamin E: the “C-reactive protein (and monocyte interleukin-6)” value in [6] is reported as “reduced”. Also, the “Oxidative stress (levels of oxidative stress markers)” value is listed as “increases” with heavy smokers and “increased” with heavy smokers (listed as vitamin E). The entries for the “Death, stroke, non-fatal MI” value in [12] and in [12] (listed as vitamin E) were “no effect” and “did not reduce”, respectively. Besides, the “lower risk of CAD” value in [13] is listed as 37%. Also, the “development of early aortic atherosclerotic lesions” value in the series on rabbits and in the series on chickens was “reduce” throughout. For the same compound, in series [14], the “reduction in mortality from CAD” value was 47%. The “FMD (endothelial-dependent flow-mediated dilation)” value in series [9] was “improved”. Further, the “Death, CAD events” value in series [15] was “no effect”; in series [15] (listed as vitamin E) it was “no significant difference”. Moreover, the “restenosis, % of patients” value in series [16] (1200 IU daily for 4 months, placebo 50%) was 34.6%. Moreover, the Stenosis result in [16] (1200 IU, 100 patients, 4 months) is reported as “reduced”. Also, in [1] (in vivo), the “doses used for short-term clinical studies without adverse effects” value is “up to 2,000 IU/d”. For the same compound, the stenosis progression result with male monkeys is reported as “decreased”. Further, the “increase in cardiovascular death” value in [8] (setting [17]) is on record as 18%. For the same compound, the “lower risk of non-fatal myocardial infarction than the placebo group” value in series [8] (setting [17]) is on record as 77%.

In the case of vitamin A, in the series with connexin gene, the “expression of the connexin gene” value is listed as “does not produce such an effect”. Further, the “toxicity after prolonged consumption in adults” value in [1] (daily doses higher than twice the RDA) is “liver and skin toxicity”.

(Values after patent US7628984B2, “Micronutrient formulations for pulmonary and heart health” (Premier Micronutrient Corporation, priority 2005, dated 2009).)
